Patent publication US11236069B2, “KIF18A inhibitors” (AMGEN INC., priority 2018, dated 2022)

Molecular target: Recombinant human KIF18A (1-467 His-tagged) protein (Homo sapiens (Human), UniProt Q8NI77)
Test: KIF18A Enzyme Assay: microtubule-stimulated ATPase activity (ADP-Glo)
Settings: read-out: KIF18A ATPase IC50; 30 nM KIF18A, 30 μg/mL pig microtubules, ATP at Km 75 μM, ADP-Glo luminescence
Source text: KIF18A Enzyme Assay: Microtubule-stimulated ATPase activity assay is used to measure KIF18A enzyme activity after treatment with compound. Compounds were 2-fold serially diluted in DMSO (Sigma Inc) over 22-point concentration range. […] The assay measures ADP formed from the ATPase reaction.

Chain of Recombinant human KIF18A (1-467 His-tagged) protein (Q8NI77 1-467): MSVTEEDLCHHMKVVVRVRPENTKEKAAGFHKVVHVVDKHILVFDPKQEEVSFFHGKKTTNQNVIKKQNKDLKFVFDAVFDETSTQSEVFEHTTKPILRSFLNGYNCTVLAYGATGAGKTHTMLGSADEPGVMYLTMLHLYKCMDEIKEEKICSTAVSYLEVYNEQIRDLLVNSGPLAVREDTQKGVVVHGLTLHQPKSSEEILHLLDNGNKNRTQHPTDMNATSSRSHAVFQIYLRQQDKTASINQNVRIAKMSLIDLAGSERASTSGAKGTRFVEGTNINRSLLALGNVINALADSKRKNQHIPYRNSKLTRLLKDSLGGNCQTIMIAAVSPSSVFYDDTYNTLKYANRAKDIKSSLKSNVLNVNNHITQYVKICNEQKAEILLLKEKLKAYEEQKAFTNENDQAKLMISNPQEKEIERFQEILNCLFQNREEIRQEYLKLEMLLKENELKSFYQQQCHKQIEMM
Chain of Recombinant human KIF18A (1-467 His-tagged) protein (P02550 whole entry partner): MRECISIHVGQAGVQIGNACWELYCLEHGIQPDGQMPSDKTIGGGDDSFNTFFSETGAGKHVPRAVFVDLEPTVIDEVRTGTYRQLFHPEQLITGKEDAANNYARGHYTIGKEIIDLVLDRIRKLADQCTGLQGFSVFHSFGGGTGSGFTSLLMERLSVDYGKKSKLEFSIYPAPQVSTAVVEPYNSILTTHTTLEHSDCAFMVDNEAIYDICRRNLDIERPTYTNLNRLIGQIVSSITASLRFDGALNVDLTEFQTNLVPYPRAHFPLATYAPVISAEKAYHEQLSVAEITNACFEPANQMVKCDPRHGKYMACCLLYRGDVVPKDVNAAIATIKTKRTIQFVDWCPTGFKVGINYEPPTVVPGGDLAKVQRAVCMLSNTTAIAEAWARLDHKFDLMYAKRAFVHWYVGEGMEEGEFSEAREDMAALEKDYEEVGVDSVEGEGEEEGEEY
Chain of Recombinant human KIF18A (1-467 His-tagged) protein (P02554 whole entry partner): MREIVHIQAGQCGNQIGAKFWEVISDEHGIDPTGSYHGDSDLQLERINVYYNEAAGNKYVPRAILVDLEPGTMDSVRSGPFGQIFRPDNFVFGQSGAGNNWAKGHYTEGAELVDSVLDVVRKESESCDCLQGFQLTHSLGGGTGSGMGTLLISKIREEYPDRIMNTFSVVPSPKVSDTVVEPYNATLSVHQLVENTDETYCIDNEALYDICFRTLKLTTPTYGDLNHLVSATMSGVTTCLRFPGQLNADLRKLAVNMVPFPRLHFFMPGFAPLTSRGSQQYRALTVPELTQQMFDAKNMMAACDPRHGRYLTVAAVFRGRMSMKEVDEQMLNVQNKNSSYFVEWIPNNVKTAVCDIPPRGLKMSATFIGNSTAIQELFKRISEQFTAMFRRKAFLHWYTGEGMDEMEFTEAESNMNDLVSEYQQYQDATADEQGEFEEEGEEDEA

Row | IC50 | SMILES
1 | 0.027 µM | O=C(Nc1ccnc(OCCC(F)(F)F)n1)c1ccc(S(=O)(=O)NCCO)cc1N1CCC2(CC1)CC2 [Example 17-1, 4-(N-(2-Hydroxyethyl)sulfamoyl)-2-(6-azaspiro[2.5]octan-6-yl)-N-(2-(3,3,3-trifluoropropoxy)pyrimidin-4-yl)benzamide]
2 | 0.034 µM | Cc1cc(NC(=O)c2cc(F)c(NS(=O)(=O)CCO)cc2N2CCC3(CC2)CC3)nc(N2CCC(F)(F)CC2)n1 [Example 11-67, N-(2-(4,4-Difluoropiperidin-1-yl)-6-methylpyrimidin-4-yl)-5-fluoro-4-((2-hydroxyethyl)sulfonamido)-2-(6-azaspiro[2.5]octan-6-yl)benzamide]
3 | 0.151 µM | C[C@@H]1CN(c2cc(NC(=O)c3ccc(NS(=O)(=O)CCO)cc3N3CCC4(CC3)CC4)ccn2)CCO1 [Example 11-65]
4 | 0.064 µM | Cc1cc(NC(=O)c2ccc([S@](=N)(=O)C3CC3)cc2N2CCC3(CC2)CC3)nc(N2CCC(F)(F)CC2)n1 (single isomer, unassigned) [Example 18-1, 2-(6-Azaspiro[2.5]octan-6-yl)-4-(R-cyclopropylsulfonimidoyl)-N-(2-(4,4-difluoro-1-piperidinyl)-6-methyl-4-pyrimidinyl)benzamide]
5 | 0.286 µM | Cc1cc(NC(=O)c2ccc(S(=O)(=O)NCC(C)(C)O)cc2N2CCC3(CC2)CC3)nc(N2CCC(F)(F)CC2)n1 [Example 17-8, N-(2-(4,4-Difluoropiperidin-1-yl)-6-methylpyrimidin-4-yl)-4-(N-(2-hydroxy-2-methylpropyl)sulfamoyl)-2-(6-azaspiro[2.5]octan-6-yl)benzamide]
6 | 0.094 µM | Cc1cc(NC(=O)c2ccc(NS(=O)(=O)C3(C)CC3)cc2N2CCC3(CC2)CC3)nc(N2CC(F)(F)C2)n1 [Example 11-74, N-(2-(3,3-Difluoroazetidin-1-yl)-6-methylpyrimidin-4-yl)-4-((1-methylcyclopropane)-1-sulfonamido)-2-(6-azaspiro[2.5]octan-6-yl)benzamide]
7 | 0.057 µM | Cc1cc(NC(=O)c2ccc(NS(=O)(=O)CCO)cc2N2CCC3(CC2)CC3)nc(N2CCO[C@H](C)C2)n1 [Example 3, (R)-4-((2-Hydroxyethyl)sulfonamido)-N-(6-methyl-2-(2-methylmorpholino)pyrimidin-4-yl)-2-(6-azaspiro[2.5]octan-6-yl)benzamide]
8 | 0.018 µM | Cc1cc(NC(=O)c2ccc(NS(=O)(=O)CCO)cc2N2CCC3(CC2)CC3)nc(NC(C)(C)CO)n1 [Example 11-62, N-(2-((1-Hydroxy-2-methylpropan-2-yl)amino)-6-methylpyrimidin-4-yl)-4-((2-hydroxyethyl)sulfonamido)-2-(6-azaspiro[2.5]octan-6-yl)benzamide]
9 | 0.093 µM | Cc1cc(NC(=O)c2ccc(NS(=O)(=O)CCO)cc2N2CCC3(CC2)CC3)nc(N2CC(C(F)(F)F)C2)n1 [Example 11-12, 4-((2-Hydroxyethyl)sulfonamido)-N-(6-methyl-2-(3-(trifluoromethyl)azetidin-1-yl)pyrimidin-4-yl)-2-(6-azaspiro[2.5]octan-6-yl)benzamide]
10 | 0.057 µM | Cc1cc(NC(=O)c2ccc([S@@](=N)(=O)C3CC3)cc2N2CCC3(CC2)CC3)nc(N2CCC(F)(F)CC2)n1 (single isomer, unassigned) [Example 18-2, 2-(6-Azaspiro[2.5]octan-6-yl)-4-(S-cyclopropylsulfonimidoyl)-N-(2-(4,4-difluoro-1-piperidinyl)-6-methyl-4-pyrimidinyl)benzamide]
11 | 0.091 µM | Cc1cc(NC(=O)c2cc(F)c(NS(=O)(=O)[C@H](C)CO)cc2N2CCC3(CC2)CC3)nc(N2CCC(F)(F)CC2)n1 (single isomer, unassigned) [Example 8-1]
12 | 0.057 µM | Cc1cc(NC(=O)c2ccc(NS(=O)(=O)CCO)cc2N2CCC3(CC2)CC3)nc(OC(C)C)n1 [Example 11-79, 4-((2-Hydroxyethyl)sulfonamido)-N-(2-isopropoxy-6-methylpyrimidin-4-yl)-2-(6-azaspiro[2.5]octan-6-yl)benzamide]
13 | 0.162 µM | Cc1cc(NC(=O)c2ccc(NS(=O)(=O)C[C@@H](C)O)cc2N2CCC3(CC2)CC3)nc(N2CCO[C@H](C)C2)n1 [Example 6-27-1, 4-(((R)-2-Hydroxypropoyl)sulfonamido)-N-(6-methyl-2-((R)-2-methylmorpholino)pyrimidin-4-yl)-2-(6-azaspiro[2.5]octan-6-yl)benzamide]
14 | 0.195 µM | Cc1cc(NC(=O)c2ccc(S(=O)(=O)[C@@H]3CCC[C@H]3O)cc2N2CCC3(CC2)CC3)nc(N2CCC(F)(F)CC2)n1 [Example 14-9, N-(2-(4,4-Difluoropiperidin-1-yl)-6-methylpyrimidin-4-yl)-4-(((1R,2R)-2-hydroxycyclopentyl)sulfonyl)-2-(6-azaspiro[2.5]octan-6-yl)benzamide]
15 | 0.095 µM | Cc1cc(NC(=O)c2ccc(NS(=O)(=O)CCO)cc2N2CCC3(CC2)CC3)nc(N2[C@H](C)COC[C@@H]2C)n1 [Example 11-48, N-(2-((3S,5R)-3,5-Dimethylmorpholino)-6-methylpyrimidin-4-yl)-4-((2-hydroxyethyl)sulfonamido)-2-(6-azaspiro[2.5]octan-6-yl)benzamide]
16 | 0.127 µM | Cc1cc(NC(=O)c2ccc(NS(=O)(=O)CCO)cc2N2CCC(C)(C)CC2)nc(N2CCC(F)(F)CC2)n1 [Example 11-41, N-(2-(4,4-Difluoropiperidin-1-yl)-6-methylpyrimidin-4-yl)-2-(4,4-dimethylpiperidin-1-yl)-4-((2-hydroxyethyl)sulfonamido)benzamide]
17 | 0.112 µM | Cc1cc(NC(=O)c2ccc(NS(=O)(=O)C[C@@H](C)O)cc2N2CCC3(CC2)CC3)nc(N2CCC(F)(F)CC2)n1 [Example 6-32-1, (R)-N-(2-(4,4-Difluoropiperidin-1-yl)-6-methylpyrimidin-4-yl)-4-((2-hydroxypropyl)sulfonamido)-2-(6-azaspiro[2.5]octan-6-yl)benzamide]
18 | 0.051 µM | CCS(=O)(=O)Nc1ccc(C(=O)Nc2cc(C)nc(N3CCC(F)CC3)n2)c(N2CCC3(CC2)CC3)c1 [Example 11-82, 4-(Ethylsulfonamido)-N-(2-(4-fluoropiperidin-1-yl)-6-methylpyrimidin-4-yl)-2-(6-azaspiro[2.5]octan-6-yl)benzamide]
19 | 0.193 µM | Cc1cc(NC(=O)c2ccc(NS(=O)(=O)CCO)cc2N2CCC3(CC2)CC3)nc(N2CC3C[C@]3(O)C2)n1 (stereo partly drawn) [Example 11-32, N-(2-((1R)-1-Hydroxy-3-azabicyclo[3.1.0]hexan-3-yl)-6-methylpyrimidin-4-yl)-4-((2-hydroxyethyl)sulfonamido)-2-(6-azaspiro[2.5]octan-6-yl)benzamide]
20 | 0.054 µM | Cc1cc(NC(=O)c2ccc(NS(=O)(=O)CCO)cc2N2CCC3(CC2)CC3)c(F)c(N2CCC(F)(F)CC2)n1 [Example 11-64, N-(2-(4,4-Difluoropiperidin-1-yl)-3-fluoro-6-methylpyridin-4-yl)-4-((2-hydroxyethyl)sulfonamido)-2-(6-azaspiro[2.5]octan-6-yl)benzamide]
21 | 0.158 µM | Cc1cc(NC(=O)c2cc(F)c(NS(=O)(=O)CCO)cc2N2CCC3(CC2)CC3)nc(N2CCO[C@H](C)C2)n1 [Example 9-2, (R)-5-Fluoro-4-((2-hydroxyethyl)sulfonamido)-N-(6-methyl-2-(2-methylmorpholino)pyrimidin-4-yl)-2-(6-azaspiro[2.5]octan-6-yl)benzamide]
22 | 0.12 µM | Cc1cc(NC(=O)c2ccc(NS(C)(=O)=O)cc2N2CCC3(CC2)CC3)nc(N2CCO[C@H](C)C2)n1 [Example 6-5, (R)-N-(6-Methyl-2-(2-methylmorpholino)pyrimidin-4-yl)-4-(methylsulfonamido)-2-(6-azaspiro[2.5]octan-6-yl)benzamide]
23 | 0.032 µM | Cc1cc(NC(=O)c2ccc(NS(=O)(=O)CCO)cc2N2CCC3(CC2)CC3)nc(N2CC(F)C2)n1 [Example 11-5, N-(2-(3-Fluoroazetidin-1-yl)-6-methylpyrimidin-4-yl)-4-((2-hydroxyethyl)sulfonamido)-2-(6-azaspiro[2.5]octan-6-yl)benzamide]
24 | 0.034 µM | Cc1cc(NC(=O)c2ccc(NS(=O)(=O)[C@@H](C)CO)cc2N2CCC3(CC2)CC3)nc(N2CC(F)(F)C2)n1 [Example 11-77, (S)-N-(2-(3,3-Difluoroazetidin-1-yl)-6-methylpyrimidin-4-yl)-4-((2-hydroxy-1-methylethyl)sulfonamido)-2-(6-azaspiro[2.5]octan-6-yl)benzamide]
25 | 0.029 µM | CC1(NS(=O)(=O)c2ccc(C(=O)Nc3ccnc(N4CCC(F)(F)CC4)c3)c(N3CCC4(CC3)CC4)c2)COC1 [Example 2-4, N-(2-(4,4-Difluoropiperidin-1-yl)pyridin-4-yl)-4-(N-(3-methyloxetan-3-yl)sulfamoyl)-2-(6-azaspiro[2.5]octan-6-yl)benzamide]
26 | 0.096 µM | Cc1cc(NC(=O)c2ccc(NS(=O)(=O)[C@@H](CO)CF)cc2N2CCC3(CC2)CC3)nc(N2CCC(F)(F)CC2)n1 [Example 16-2, (S)-N-(2-(4,4-Difluoropiperidin-1-yl)-6-methylpyrimidin-4-yl)-4-((2-fluoro-1-(hydroxymethyl)ethyl)sulfonamido)-2-(6-azaspiro[2.5]octan-6-yl)benzamide]
27 | 0.071 µM | Cc1cc(NC(=O)c2c(F)cc(NS(=O)(=O)CCO)cc2N2CCC3(CC2)CC3)nc(N2CCC(F)(F)CC2)n1 [Example 11-58, N-(2-(4,4-Difluoropiperidin-1-yl)-6-methylpyrimidin-4-yl)-2-fluoro-4-((2-hydroxyethyl)sulfonamido)-6-(6-azaspiro[2.5]octan-6-yl)benzamide]
28 | 0.175 µM | Cc1cc(NC(=O)c2ccc(S(=N)(=O)C(C)C)cc2N2CCC3(CC2)CC3)nc(N2CCC(F)(F)CC2)n1 (centres unmarked) [Example 19-5, N-(2-(4,4-Difluoropiperidin-1-yl)-6-methylpyrimidin-4-yl)-4-(propan-2-ylsulfonimidoyl)-2-(6-azaspiro[2.5]octan-6-yl)benzamide]
29 | 0.068 µM | O=C(Nc1ccnc(N2CC(F)C2)n1)c1ccc(NS(=O)(=O)CCO)cc1N1CCC2(CC1)CC2 [Example 11-6, N-(2-(3-Fluoroazetidin-1-yl)pyrimidin-4-yl)-4-((2-hydroxyethyl)sulfonamido)-2-(6-azaspiro[2.5]octan-6-yl)benzamide]
